Measured values taken from patent US10538555B2, “Macrocyclic inhibitors of the PD-1/PD-L1 and CD80(B7-1)/PD-L1 protein/protein interactions” (BRISTOL-MYERS SQUIBB COMPANY, priority 2014, dated 2020).
*1 amine or outer side, *2 acyl side, *3 side chain or, on linkers, in order; H or OH if unused. Where a SMILES comes first, the peptide text is derived from it. Bridges are numbered along the chain shown (N, C = ends). [ ]: non-standard residue; d: D form. Phe(3,4,5-F3) = N[C@@H](Cc1cc(F)c(F)c(F)c1)C(=O)O; Trp(7-Br) = N[C@@H](Cc1c[nH]c2c(Br)cccc12)C(=O)O; Phe(4-CH2NH2) = NCc1ccc(C[C@H](N)C(=O)O)cc1; Morpholine(3S-CO) = O=C(O)[C@@H]1COCCN1; Pro(4R-NH2) = N[C@H]1CN[C@H](C(=O)O)C1; X4 = CC1(C)CC[C@H](C(=O)[*:2])N1[*:1]; d(cisHyp) = O=C(O)[C@H]1C[C@@H](O)CN1; Bta = N[C@@H](Cc1csc2ccccc12)C(=O)O; Hyp = O=C(O)[C@@H]1C[C@@H](O)CN1; NMeF = CN[C@@H](Cc1ccccc1)C(=O)O; Pip(4-aza) = O=C(O)[C@@H]1CNCCN1; X1 = O=C([C@H]1COCCN1[*:1])[*:2]; αMeF = C[C@](N)(Cc1ccccc1)C(=O)O; NMeNle = CCCC[C@H](NC)C(=O)O; Tle = CC(C)(C)[C@H](N)C(=O)O; Pip = O=C(O)[C@@H]1CCCCN1; dPip = O=C(O)[C@H]1CCCCN1; NMeA = CN[C@@H](C)C(=O)O; Orn = NCCC[C@H](N)C(=O)O; Aze = O=C(O)[C@@H]1CCN1; Sar = CNCC(=O)O

Target: T1, Human PD-L1/PD-1 (Homo sapiens, UniProt Q9NZQ7)
T1 construct: TVMV protease cleavage site (C); made in house; host or cells: HEK293T cells
T1 sequence (Q9NZQ7 with tags, fused parts or gaps): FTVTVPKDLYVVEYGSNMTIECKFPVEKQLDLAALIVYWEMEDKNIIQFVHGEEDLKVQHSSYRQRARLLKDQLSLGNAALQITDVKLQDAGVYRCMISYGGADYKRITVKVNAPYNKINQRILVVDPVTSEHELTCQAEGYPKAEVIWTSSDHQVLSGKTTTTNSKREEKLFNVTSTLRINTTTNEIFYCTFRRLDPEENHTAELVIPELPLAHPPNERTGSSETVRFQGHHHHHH
Experiment: HTRF Human PD-L1/PD-1 binding assay (PD-1-Ig/PD-L1-His)
Settings: PD-L1-His 10 nM, PD-1-Ig 20 nM; class symbol; read-out: HTRF Human PD-L1/PD-1 Binding Assay IC50 Range
Outline: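 Compound preincubated 15 min with PD-L1-His (10 nM final), then PD-1-Ig (20 nM final) added for 15 min in dPBS with 0.1% BSA and 0.05% Tween-20. Detection by Eu-cryptate anti-Ig (1 nM) and APC anti-His (20 nM) after 30 min; 665/620 nm HTRF ratio. Proteins expressed in HEK293T.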

Compound | IC50 [nM]
CCCC[C@H]1C(=O)N(C)[C@@H](CCCC)C(=O)N[C@@H](CCCN)C(=O)N[C@H](C(=O)NCC(N)=O)CSCC(=O)N[C@@H](Cc2ccc(O)cc2)C(=O)N2CCCC[C@H]2C(=O)N[C@@H](CC(=O)O)C(=O)N2CCC[C@H]2C(=O)N[C@@H](Cc2c[nH]cn2)C(=O)N[C@@H](CCC(=O)O)C(=O)N2C[C@H](O)C[C@H]2C(=O)N[C@@H](Cc2c[nH]c3ccccc23)C(=O)N[C@@H](CO)C(=O)N[C@@H](Cc2c[nH]c3ccccc23)C(=O)N1C [Example 1536] ({CH2CO}-Y[Pip]DPHE[Hyp]WSW[NMeNle][NMeNle][Orn]CG-NH2; thioether N-14) | 10 to 99.9
CCCC[C@H]1C(=O)N(C)[C@@H](CCCC)C(=O)N[C@@H](CCCNC(=N)N)C(=O)N[C@H](C(=O)NCC(N)=O)CSCC(=O)N[C@@H](Cc2ccc(O)cc2)C(=O)N2CCCC[C@H]2C(=O)N[C@@H](CC(=O)O)C(=O)N2CCC[C@H]2C(=O)N[C@@H](Cc2c[nH]cn2)C(=O)N[C@@H](CCCN)C(=O)N2C[C@H](O)C[C@H]2C(=O)N[C@@H](Cc2c[nH]c3ccccc23)C(=O)N[C@@H](CO)C(=O)N[C@@H](Cc2c[nH]c3ccccc23)C(=O)N1C [Example 1537] ({CH2CO}-Y[Pip]DPH[Orn][Hyp]WSW[NMeNle][NMeNle]RCG-NH2; thioether N-14) | 10 to 99.9
CCCC[C@H]1C(=O)N(C)[C@@H](CCCC)C(=O)N[C@@H](CCCNC(=N)N)C(=O)N[C@H](C(=O)NCC(N)=O)CSCC(=O)N[C@@H](Cc2ccc(O)cc2)C(=O)N2CCCC[C@H]2C(=O)N[C@@H](CCC(=O)O)C(=O)N2CCC[C@H]2C(=O)N[C@@H](Cc2c[nH]cn2)C(=O)N[C@@H](CCCN)C(=O)N2C[C@H](O)C[C@H]2C(=O)N[C@@H](Cc2c[nH]c3ccccc23)C(=O)N[C@@H](CO)C(=O)N[C@@H](Cc2c[nH]c3ccccc23)C(=O)N1C [Example 1538] ({CH2CO}-Y[Pip]EPH[Orn][Hyp]WSW[NMeNle][NMeNle]RCG-NH2; thioether N-14) | 10 to 99.9
CCCC[C@H]1C(=O)N(C)[C@@H](CCCC)C(=O)N[C@@H](C)C(=O)N[C@H](C(=O)NCC(N)=O)CSCC(=O)N[C@@H](Cc2ccc(O)cc2)C(=O)N(C)[C@@H](C)C(=O)N[C@@H](CC(N)=O)C(=O)N2CCC[C@H]2C(=O)N[C@@H](Cc2cnc[nH]2)C(=O)N[C@@H](CCC(N)=O)C(=O)N2C[C@H](O)C[C@H]2C(=O)N[C@@H](Cc2c[nH]c3ccccc23)C(=O)N[C@@H](CO)C(=O)N[C@@H](Cc2csc3ccccc23)C(=O)N1C [Example 1542] ({CH2CO}-Y[NMeA]NPHQ[Hyp]WS[Bta][NMeNle][NMeNle]ACG-NH2; thioether N-14) | 10 to 99.9
CCCC[C@H]1C(=O)N(C)CC(=O)N[C@@H](CC(=O)O)C(=O)N[C@@H](C(C)(C)C)C(=O)N(C)[C@@H](Cc2ccccc2)C(=O)N[C@@H](Cc2ccc(O)cc2)C(=O)N(C)CC(=O)N[C@@H](Cc2c[nH]c3ccccc23)C(=O)N[C@@H](Cc2ccc(O)cc2)C(=O)N[C@@H](CC(C)C)C(=O)N[C@H](C(=O)NCC(N)=O)CSCC(=O)N[C@@H](Cc2ccccc2)C(=O)N(C)[C@@H](Cc2ccccc2)C(=O)N1C [Example 3211] ({CH2CO}-F[NMeF][NMeNle][Sar]D[Tle][NMeF]Y[Sar]WYLCG-NH2; thioether N-13) | 10 to 99.9

Results, then the compound that gave them:

IC50 [nM] | Compound
10 to 99.9 | CCCC[C@H]1C(=O)N(C)CC(=O)N[C@@H](CC(N)=O)C(=O)N[C@@H](C(C)C)C(=O)N(C)[C@@H](Cc2ccccc2)C(=O)N[C@@H](CC(=O)O)C(=O)N(C)CC(=O)N[C@@H](Cc2c[nH]c3ccccc23)C(=O)N[C@@H](Cc2ccc(CN)cc2)C(=O)N[C@@H](CC(C)C)C(=O)N[C@H](C(=O)NCC(N)=O)CSCC(=O)N[C@@H](Cc2ccccc2)C(=O)N(C)[C@@H](Cc2ccccc2)C(=O)N1C [Example 3212] ({CH2CO}-F[NMeF][NMeNle][Sar]NV[NMeF]D[Sar]W[Phe(4-CH2NH2)]LCG-NH2; thioether N-13)
10 to 99.9 | CCCC[C@H]1C(=O)N2C[C@H](O)C[C@@H]2C(=O)N2C[C@H](N)C[C@H]2C(=O)N[C@@H](C(C)C)C(=O)N(C)[C@@H](Cc2ccccc2)C(=O)N[C@@H](CCC(=O)O)C(=O)N2CCOC[C@@H]2C(=O)N[C@@H](Cc2c[nH]c3ccccc23)C(=O)N[C@@H](Cc2ccc(O)cc2)C(=O)N[C@@H](CC(C)C)C(=O)N[C@H](C(=O)NCC(N)=O)CSCC(=O)N[C@@H](Cc2cc(F)c(F)c(F)c2)C(=O)N(C)[C@@H](Cc2ccccc2)C(=O)N1C [Example 3216] ({CH2CO}-[Phe(3,4,5-F3)][NMeF][NMeNle][d(cisHyp)][Pro(4R-NH2)]V[NMeF]E[X1]WYLCG-NH2; thioether N-13)
10 to 99.9 | CCCC[C@H]1C(=O)N2CCC[C@@H]2C(=O)N2CCCC[C@H]2C(=O)N[C@@H](C(C)C)C(=O)N(C)[C@@H](Cc2ccccc2)C(=O)N[C@@H](Cc2ccc(O)cc2)C(=O)N2CCCC[C@@H]2C(=O)N[C@@H](Cc2c[nH]c3ccccc23)C(=O)N[C@@H](Cc2ccc(O)cc2)C(=O)N[C@@H](CC(C)C)C(=O)N[C@H](C(=O)NCC(N)=O)CSCC(=O)N[C@@H](Cc2cc(F)c(F)c(F)c2)C(=O)N(C)[C@@H](Cc2ccccc2)C(=O)N1C [Example 3217] ({CH2CO}-[Phe(3,4,5-F3)][NMeF][NMeNle][dP][Pip]V[NMeF]Y[dPip]WYLCG-NH2; thioether N-13)
1 to 9.9 | CCCC[C@H]1C(=O)N2CCC[C@@H]2C(=O)N2CCNC[C@H]2C(=O)N[C@@H](C(C)C)C(=O)N(C)[C@@H](Cc2ccccc2)C(=O)N[C@@H](Cc2ccc(O)cc2)C(=O)N2CCCC[C@@H]2C(=O)N[C@@H](Cc2c[nH]c3ccccc23)C(=O)N[C@@H](Cc2ccc(O)cc2)C(=O)N[C@@H](CC(C)C)C(=O)N[C@H](C(=O)NCC(N)=O)CSCC(=O)N[C@@H](Cc2cc(F)c(F)c(F)c2)C(=O)N(C)[C@@H](Cc2ccccc2)C(=O)N1C [Example 3218] ({CH2CO}-[Phe(3,4,5-F3)][NMeF][NMeNle][dP][Pip(4-aza)]V[NMeF]Y[dPip]WYLCG-NH2; thioether N-13)
10 to 99.9 | CCCC[C@H]1C(=O)N2CCC[C@@H]2C(=O)N2CCOC[C@H]2C(=O)N[C@@H](C(C)C)C(=O)N(C)[C@@H](Cc2ccccc2)C(=O)N[C@@H](Cc2ccc(O)cc2)C(=O)N2CCCC[C@@H]2C(=O)N[C@@H](Cc2c[nH]c3ccccc23)C(=O)N[C@@H](Cc2ccc(O)cc2)C(=O)N[C@@H](CC(C)C)C(=O)N[C@H](C(=O)NCC(N)=O)CSCC(=O)N[C@@H](Cc2cc(F)c(F)c(F)c2)C(=O)N(C)[C@@H](Cc2ccccc2)C(=O)N1C [Example 3219] ({CH2CO}-[Phe(3,4,5-F3)][NMeF][NMeNle][dP][Morpholine(3S-CO)]V[NMeF]Y[dPip]WYLCG-NH2; thioether N-13)
10 to 99.9 | CCCC[C@H]1C(=O)N2CCC[C@@H]2C(=O)N[C@@H](CC(=O)O)C(=O)N[C@@H](C(C)C)C(=O)N[C@@](C)(Cc2ccccc2)C(=O)N[C@@H](Cc2ccc(O)cc2)C(=O)N2CCCC[C@@H]2C(=O)N[C@@H](Cc2c[nH]c3ccccc23)C(=O)N[C@@H](Cc2ccc(O)cc2)C(=O)N[C@@H](CC(C)C)C(=O)N[C@H](C(=O)NCC(N)=O)CSCC(=O)N[C@@H](Cc2ccccc2)C(=O)N(C)[C@@H](Cc2ccccc2)C(=O)N1C [Example 3220] ({CH2CO}-F[NMeF][NMeNle][dP]DV[αMeF]Y[dPip]WYLCG-NH2; thioether N-13)
10 to 99.9 | CCCC[C@H]1C(=O)N2CCC[C@@H]2C(=O)N2CC[C@H]2C(=O)N[C@@H](C(C)C)C(=O)N(C)[C@@H](Cc2ccccc2)C(=O)N[C@@H](Cc2ccc(O)cc2)C(=O)N2CCCC[C@@H]2C(=O)N[C@@H](Cc2c[nH]c3ccccc23)C(=O)N[C@@H](Cc2ccc(O)cc2)C(=O)N[C@@H](CC(C)C)C(=O)N[C@H](C(=O)NCC(N)=O)CSCC(=O)N[C@@H](Cc2cc(F)c(F)c(F)c2)C(=O)N(C)[C@@H](Cc2ccccc2)C(=O)N1C [Example 3221] ({CH2CO}-[Phe(3,4,5-F3)][NMeF][NMeNle][dP][Aze]V[NMeF]Y[dPip]WYLCG-NH2; thioether N-13)

Same assay, conditions: PD-L1-His 10 nM, PD-1-Ig 20 nM; read-out: HTRF Human PD-L1/PD-1 Binding Assay IC50

IC50 [nM] | Compound
451 | CCCC[C@H]1C(=O)N(C)[C@@H](CCCC)C(=O)N[C@@H](C)C(=O)N[C@H](C(=O)NCC(N)=O)CSCC(=O)N[C@@H](Cc2ccc(O)cc2)C(=O)N(C)[C@@H](C)C(=O)N[C@@H](CC(N)=O)C(=O)N2CCC[C@H]2C(=O)N[C@@H](Cc2cnc[nH]2)C(=O)N[C@@H](CCC(N)=O)C(=O)N2C[C@H](O)C[C@H]2C(=O)N[C@@H](Cc2c[nH]c3ccccc23)C(=O)N[C@@H](CO)C(=O)N[C@@H](Cc2c[nH]c3c(Br)cccc23)C(=O)N1C [Example 1541] ({CH2CO}-Y[NMeA]NPHQ[Hyp]WS[Trp(7-Br)][NMeNle][NMeNle]ACG-NH2; thioether N-14)
1000 | CCCC[C@H]1C(=O)N(C)CC(=O)N[C@@H](CC(=O)O)C(=O)N[C@@H](C(C)C)C(=O)N(C)[C@@H](Cc2ccccc2)C(=O)N[C@@H](Cc2ccc(O)cc2)C(=O)N2[C@H](CCC2(C)C)C(=O)N[C@@H](Cc2c[nH]c3ccccc23)C(=O)N[C@@H](Cc2ccc(O)cc2)C(=O)N[C@@H](CC(C)C)C(=O)N[C@H](C(=O)NCC(N)=O)CSCC(=O)N[C@@H](Cc2ccccc2)C(=O)N(C)[C@@H](Cc2ccccc2)C(=O)N1C [Example 3210] ({CH2CO}-F[NMeF][NMeNle][Sar]DV[NMeF]Y[X4]WYLCG-NH2; thioether N-13)
4.5 | CCCC[C@H]1C(=O)N2CCC[C@@H]2C(=O)N[C@@H](CC(=O)O)C(=O)N[C@@H](C(C)(C)C)C(=O)N(C)[C@@H](Cc2ccccc2)C(=O)N[C@@H](Cc2ccc(O)cc2)C(=O)N2CCCC[C@@H]2C(=O)N[C@@H](Cc2c[nH]c3ccccc23)C(=O)N[C@@H](Cc2ccc(O)cc2)C(=O)N[C@@H](CC(C)C)C(=O)N[C@H](C(=O)NCC(N)=O)CSCC(=O)N[C@@H](Cc2cc(F)c(F)c(F)c2)C(=O)N(C)[C@@H](Cc2ccccc2)C(=O)N1C [Example 3222] ({CH2CO}-[Phe(3,4,5-F3)][NMeF][NMeNle][dP]D[Tle][NMeF]Y[dPip]WYLCG-NH2; thioether N-13)
